In PubChem BioAssay (NCI):
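1) Cells in 96-well plates. 2) Compound, 48 h, 5 concentrations. 3) Linear interpolation between surrounding doses. 4) Unreached endpoint = highest concentration. GI50 = concentration required for 50% inhibition of growth. TGI denotes the concentration required for complete inhibition of growth.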

Experiments:
Experiment in all cases: NCI-60 cell line screen, 48 h
T-47D breast = test system: T-47D breast
SF-539 CNS = test system: SF-539 CNS
SK-MEL-28 melanoma = test system: SK-MEL-28 melanoma
SNB-19 CNS = test system: SNB-19 CNS
HCT-15 colon = test system: HCT-15 colon
CAKI-1 renal = test system: CAKI-1 renal
SK-MEL-2 melanoma = test system: SK-MEL-2 melanoma
HT29 colon = test system: HT29 colon
MDA-MB-435 = test system: MDA-MB-435
HOP-92 NSCLC = test system: HOP-92 NSCLC
SK-OV-3 ovarian = test system: SK-OV-3 ovarian
UACC-62 melanoma = test system: UACC-62 melanoma
NCI-H460 lung = test system: NCI-H460 lung
LOX IMVI melanoma = test system: LOX IMVI melanoma
MDA-MB-231 breast = test system: MDA-MB-231 breast
UO-31 renal = test system: UO-31 renal
HCT-116 colon = test system: HCT-116 colon
M14 melanoma = test system: M14 melanoma
IGROV1 ovarian = test system: IGROV1 ovarian
SK-MEL-5 melanoma = test system: SK-MEL-5 melanoma
MOLT-4 leukemia = test system: MOLT-4 leukemia
OVCAR-4 ovarian = test system: OVCAR-4 ovarian
OVCAR-3 ovarian = test system: OVCAR-3 ovarian
EKVX NSCLC = test system: EKVX NSCLC
DU-145 prostate = test system: DU-145 prostate
SW-620 colon = test system: SW-620 colon
HOP-62 NSCLC = test system: HOP-62 NSCLC
A549 NSCLC = test system: A549 NSCLC
CCRF-CEM leukemia = test system: CCRF-CEM leukemia
HL-60(TB) leukemia = test system: HL-60(TB) leukemia
NCI-H226 lung = test system: NCI-H226 lung
TK-10 renal = test system: TK-10 renal
MALME-3M melanoma = test system: MALME-3M melanoma
SR leukemia = test system: SR leukemia
UACC-257 melanoma = test system: UACC-257 melanoma
SNB-75 CNS = test system: SNB-75 CNS
KM12 colon = test system: KM12 colon
MCF7 breast = test system: MCF7 breast
OVCAR-5 ovarian = test system: OVCAR-5 ovarian
OVCAR-8 ovarian = test system: OVCAR-8 ovarian
ACHN renal = test system: ACHN renal
786-0 renal = test system: 786-0 renal
COLO 205 colon = test system: COLO 205 colon
HS 578T breast = test system: HS 578T breast
SN12C renal = test system: SN12C renal
PC-3 prostate = test system: PC-3 prostate
RPMI-8226 leukemia = test system: RPMI-8226 leukemia
A498 renal = test system: A498 renal
RXF 393 renal = test system: RXF 393 renal
NCI-H23 lung = test system: NCI-H23 lung
HCC-2998 colon = test system: HCC-2998 colon
U251 CNS = test system: U251 CNS
SF-268 CNS = test system: SF-268 CNS
BT-549 breast = test system: BT-549 breast

Structure (SMILES): COc1ccc(/C=C/C(=O)Nc2cc(/C=C\c3cc(OC)c(OC)c(OC)c3)cc(OC)c2OC)cc1OC
- GI50 (T-47D breast): 2.21 µM
- TGI (T-47D breast): 8.73 µM
- GI50 (SF-539 CNS): 3.7 µM
- TGI (SF-539 CNS): > 100 µM
- GI50 (SK-MEL-28 melanoma): 2.87 µM
- TGI (SK-MEL-28 melanoma): > 100 µM
- GI50 (SNB-19 CNS): 4.3 µM
- TGI (SNB-19 CNS): > 100 µM
- GI50 (HCT-15 colon): 3.58 µM
- TGI (HCT-15 colon): > 100 µM
- GI50 (CAKI-1 renal): 2.16 µM
- TGI (CAKI-1 renal): > 100 µM
- GI50 (SK-MEL-2 melanoma): 3.05 µM
- TGI (SK-MEL-2 melanoma): 9.4 µM
- GI50 (HT29 colon): 3.64 µM
- TGI (HT29 colon): > 100 µM
- GI50 (MDA-MB-435): 1.29 µM
- TGI (MDA-MB-435): 4.52 µM
- GI50 (HOP-92 NSCLC): > 100 µM
- TGI (HOP-92 NSCLC): > 100 µM
- GI50 (SK-OV-3 ovarian): 3.02 µM
- TGI (SK-OV-3 ovarian): 8.48 µM
- GI50 (UACC-62 melanoma): 2.21 µM
- TGI (UACC-62 melanoma): > 100 µM
- GI50 (NCI-H460 lung): 3.37 µM
- TGI (NCI-H460 lung): > 100 µM
- GI50 (LOX IMVI melanoma): 4 µM
- TGI (LOX IMVI melanoma): > 100 µM
- GI50 (MDA-MB-231 breast): 6.65 µM
- TGI (MDA-MB-231 breast): > 100 µM
- GI50 (UO-31 renal): 2.31 µM
- TGI (UO-31 renal): > 100 µM
- GI50 (HCT-116 colon): 3.71 µM
- TGI (HCT-116 colon): > 100 µM
- GI50 (M14 melanoma): 3.01 µM
- TGI (M14 melanoma): > 100 µM
- GI50 (IGROV1 ovarian): 7.48 µM
- TGI (IGROV1 ovarian): > 100 µM
- GI50 (SK-MEL-5 melanoma): 1.61 µM
- TGI (SK-MEL-5 melanoma): 3.65 µM
- GI50 (MOLT-4 leukemia): 3.35 µM
- TGI (MOLT-4 leukemia): > 100 µM
- GI50 (OVCAR-4 ovarian): 2.49 µM
- TGI (OVCAR-4 ovarian): > 100 µM
- GI50 (OVCAR-3 ovarian): 5.53 µM
- TGI (OVCAR-3 ovarian): > 100 µM
- GI50 (EKVX NSCLC): 3.47 µM
- TGI (EKVX NSCLC): > 100 µM
- GI50 (DU-145 prostate): 26.6 µM
- TGI (DU-145 prostate): > 100 µM
- GI50 (SW-620 colon): 5.05 µM
- TGI (SW-620 colon): > 100 µM
- GI50 (HOP-62 NSCLC): 3.15 µM
- TGI (HOP-62 NSCLC): > 100 µM
- GI50 (A549 NSCLC): 3.69 µM
- TGI (A549 NSCLC): > 100 µM
- GI50 (CCRF-CEM leukemia): 2.48 µM
- TGI (CCRF-CEM leukemia): > 100 µM
- GI50 (HL-60(TB) leukemia): 2.3 µM
- TGI (HL-60(TB) leukemia): 7.66 µM
- GI50 (NCI-H226 lung): 3.62 µM
- TGI (NCI-H226 lung): > 100 µM
- GI50 (TK-10 renal): 5.13 µM
- TGI (TK-10 renal): > 100 µM
- GI50 (MALME-3M melanoma): 2.8 µM
- TGI (MALME-3M melanoma): > 100 µM
- GI50 (SR leukemia): 0.668 µM
- TGI (SR leukemia): > 100 µM
- GI50 (UACC-257 melanoma): 6.5 µM
- TGI (UACC-257 melanoma): > 100 µM
- GI50 (SNB-75 CNS): 1.68 µM
- TGI (SNB-75 CNS): 7.46 µM
- GI50 (KM12 colon): 4.22 µM
- TGI (KM12 colon): > 100 µM
- GI50 (MCF7 breast): 2.44 µM
- TGI (MCF7 breast): > 100 µM
- GI50 (OVCAR-5 ovarian): 6.49 µM
- TGI (OVCAR-5 ovarian): > 100 µM
- GI50 (OVCAR-8 ovarian): 3.44 µM
- TGI (OVCAR-8 ovarian): > 100 µM
- GI50 (ACHN renal): 4.68 µM
- TGI (ACHN renal): > 100 µM
- GI50 (786-0 renal): 2.98 µM
- TGI (786-0 renal): > 100 µM
- GI50 (COLO 205 colon): 2.65 µM
- TGI (COLO 205 colon): 6.55 µM
- GI50 (HS 578T breast): 8.92 µM
- TGI (HS 578T breast): > 100 µM
- GI50 (SN12C renal): 3.96 µM
- TGI (SN12C renal): > 100 µM
- GI50 (PC-3 prostate): 3.06 µM
- TGI (PC-3 prostate): > 100 µM
- GI50 (RPMI-8226 leukemia): 2.14 µM
- TGI (RPMI-8226 leukemia): > 100 µM
- GI50 (A498 renal): 4.92 µM
- TGI (A498 renal): > 100 µM
- GI50 (RXF 393 renal): 2.23 µM
- TGI (RXF 393 renal): 6.42 µM
- GI50 (NCI-H23 lung): 3.48 µM
- TGI (NCI-H23 lung): > 100 µM
- GI50 (HCC-2998 colon): 6.95 µM
- TGI (HCC-2998 colon): > 100 µM
- GI50 (U251 CNS): 4.22 µM
- TGI (U251 CNS): > 100 µM
- GI50 (SF-268 CNS): 9.1 µM
- TGI (SF-268 CNS): > 100 µM
- GI50 (BT-549 breast): 3.36 µM
- TGI (BT-549 breast): 57.8 µM
